According to patent US20190328721A1, “METHOD OF ACTIVATING DENDRITIC CELLS” (KOREA INSTITUTE OF SCIENCE AND TECHNOLOGY, priority 2018, published 2019):

How the values were obtained:
[1] = tested on: bone marrow-derived macrophages (BMDMs); assay: Phagocytosis of cancer cells by bone marrow-derived macrophages in vitro; assay type: cell-based, mice
Procedure: Specifically, the present inventors prepared bone marrow-derived macrophages (BMDMs) differentiated from excised bone marrow of mice using M-CSF and bone marrow-derived dendritic cells (BMDCs) differentiated from excised bone marrow using Flt3L. The degree of differentiation was confirmed by flow cytometry analysis using antibodies specifically binding to F4/80 (BMDM marker) and CD11c (BMDC marker), respectively (FIGS. 2A and 2B).
The prepared BMDMs and BMDCs were stained with 1 μM CellTracker Deep Red (Thermo Fisher Scientific, USA). 30 μM of Y27632 (Abcam, USA) or 30 μM of fasudil (Selleck Chemicals, USA) was added to each of 15×10^4 cells/ml of the stained macrophages and dendritic cells and incubated at 37° C. for 1 hour. As a negative control, macrophages or dendritic cells that were not incubated with Y27632 and fasudil were used.
Bone marrow-derived macrophages or dendritic cells prepared in RPMI medium and cancer cell lines stained with 1 μM CellTracker CMFDA (Thermo Fisher Scientific, USA) were co-cultured at about 37° C. for about 2 hours. CT26.CL25, a colon cancer cell line, and B16F10-OVA, a melanoma cell line, were used as the cancer cells.
Thereafter, the percentage of cancer cells was measured by flow cytometry, and the phagocytosis ratio of macrophages and dendritic cells against cancer cells was calculated. The results are shown in FIGS. 2C to 2F (left: cancer cell line CT26.CL25, right: cancer cell line B16F10-OVA).
In order to more accurately analyze the phagocytosis of macrophages and dendritic cells against cancer cells according to the treatment of the ROCK inhibitor, the present inventors analyzed phagocytosis of the BMDMs and BMDCs against CT26.CL25 colon cancer cells using the pHrodo-SE dye, which changes in fluorescence depending on pH. When […], the pH of the cancer cells decreased and became red. When treated with Y27632 as described above for the above-mentioned phagocytosis response, the phagocytic activities of both the BMDMs and BMDCs against cancer cells were improved.
The present inventors performed an experiment to confirm how long the phagocytosis of BMDMs and BMDCs against cancer cells due to the ROCK inhibitor is maintained. Specifically, BMDMs and BMDCs were pretreated with Y27632 for 1 hour, then Y27632 was removed, and immediately after 30 minutes, 1 hour, 2 hours, or 4 hours, the phagocytosis against CT26.CL25 and B16F10-Ova was measured using a flow cytometer. The other experimental conditions were the same as in Example 1-1.
In order to confirm whether the ROCK inhibitor increases phagocytosis against cancer cells by acting on phagocytic cells (BMDMs or BMDCs) themselves, Y27632 was used to pretreat the phagocytic cells or cancer cells for 1 hour, and the phagocytic activity was analyzed using the same procedure described in Example 1-1.
The present inventors identified through the above-mentioned results that Y27632 promotes phagocytic cells against cancer cells by inhibiting ROCK in the phagocytic cells. In order to elucidate a more detailed mechanism related to the increase of phagocytic activity by ROCK inhibitors, the present inventors analyzed phagocytosis of the phagocytic cells against cancer cells using blebbistatin (Sigma-Aldrich, USA), which can inhibit the movement of myosin light chain, which exist downstream of ROCK signaling pathway, according to the method described in Example 1-1.
Bone marrow-derived macrophages (BMDMs) treated with 30 μM of fasudil were co-cultured with B16F10-Ova malignant melanoma cells for 1 hour and the phagocytic activity of the BMDMs against apoptotic cancer cells was analyzed by flow cytometry analysis. In order to induce immunogenic apoptosis, 2.5 μM mitoxantrone (Sigma-Aldrich, USA) was administered with B16F10-Ova cells stained with CellTracker Deep Red (Thermo Fisher Scientific, USA) for 4 hours. […]

B16F10-Ova cells = assay: Annexin V flow cytometry for direct death of cancer cells; assay type: cell-based, mouse; details: 30 μM, 24 hours
Procedure: (§1) Specifically, the present inventors treated CT26.CL25 cells and B16F10-Ova cells with 30 μM of the ROCK inhibitor Y27632 for 24 hours, and performed flow cytometry analysis using FITC-anti-Annexin V antibodies (Abcam, USA). On the other hand, cells were treated with 10 μg of TRAIL, 0.25 μM of doxorubicin, 2.5 μM of doxorubicin, or 25 μM of doxorubicin, respectively, for 4 hours, as positive controls.

CT26.CL25 cells = assay: as above; assay type: cell-based, mouse; details: 30 μM, 24 hours
Procedure: as §1

[2] = tested on: bone marrow-derived dendritic cells (BMDCs); assay: BMDC maturation markers CD40 and CD86 in vitro; assay type: cell-based, mice; details: 30 μM, 1 hour
Procedure: In addition, the present inventors used pretreatment with 30 μM of Y27632 for 1 hour of bone marrow-derived dendritic cells (BMDCs) stained with cell marker CellTracker CMFDA (Thermo Fisher Scientific, Inc., USA) and then removed floating tumor cells by withdrawing removing the supernatant. Twenty hours later, the expression of CD40 and CD86 was analyzed by flow cytometry.
The present inventors then investigated whether dendritic cell maturation was promoted by the combination treatment of doxorubicin and Y27632. Specifically, 30 μM of Y27632 was used to pretreat bone marrow-derived dendritic cells (BMDC) stained with CellTracker CMFDA (Thermo Fisher Scientific, USA) for 1 hour, and then doxorubicin-treated CT26.CL25 was co-cultured for 4 hours, and floating cancer cells were removed by withdrawing supernatant. The expression level of CD40 and CD86, which are dendritic cell maturation markers, was analyzed by flow cytometry after 20 hours.

OT-1 T cells = assay: Co-culture of OT-1 T cells with phagocytes isolated from B16F10-Ova-bearing mice (IFN-γ); assay type: in vivo
Procedure: In addition, the expression of IFN-γ in OT-1 T cells co-cultured with macrophages and dendritic cells isolated from the tumor-draining lymph nodes and the tumor tissues in the B16F10-Ova cancer model mice was assessed using IFN-γ ELISA kit (R&D Systems, Inc, USA). It was confirmed that the amount of IFN-γ was increased when the dendritic cells isolated from the tumor-draining lymph nodes and the tumor tissues were co-cultured with OT-1 T cells (FIG. 14D). However, there was no change in the amount of IFN-γ when macrophages and OT-1 T cells were co-cultured.
The present inventors investigated whether the combined administration of Y27632 and doxorubicin induces immunity enhancement through CD8 T cells. For this purpose, dendritic cells isolated from tumor-draining lymph nodes of B16F10-Ova-bearing cancer model mice were co-cultured with OT-1 T cells, and then the amount of IFN-γ was measured by IFN-γ ELISA kit (R&D Systems, USA). […] In addition, it was confirmed that the amount of IFN-γ-positive T cells increased when the dendritic cells derived from mice administered with the combined administration were co-cultured with OT-1 T cells (FIG. 18G).

[3] = from tumor-draining lymph nodes

## C[C@@H](N)[C@H]1CC[C@H](C(=O)Nc2ccncc2)CC1 [Y27632]
[1]; 30 μM, 1 hour, co-culture with CT26.CL25 or B16F10-OVA about 2 hours
  phagocytic ability of macrophages against cancer cells: significantly increased
[1]; CT26.CL25 colon cancer cells
  phagocytic activity of BMDMs against cancer cells (pHrodo-SE dye): improved
[1]; cancer cells pretreated for 1 hour
  phagocytosis by BMDMs against cancer cells, cancer cells pre-treated: not increased
[1]; phagocytic cells pretreated for 1 hour
  phagocytosis against cancer cells, BMDMs pretreated: increased
[1]; pretreated 1 hour, then removed, CT26.CL25 and B16F10-Ova
  time for which BMDMs maintain phagocytosis after the pretreatment: ≤ 1 h
B16F10-Ova cells
  death of cancer cells (Annexin V): not to increase the death of cancer cells
CT26.CL25 cells
  death of cancer cells (Annexin V): not to increase the death of cancer cells
[2]; co-cultivation with CT26.CL25, analysed twenty hours later
  DC maturation (CD40 and CD86 expression) of BMDCs: did not increase
[2]; co-culture 4 hours, analysed after 20 hours
  dendritic cell maturation (CD40 and CD86) with doxorubicin-treated CT26.CL25: increased
OT-1 T cells; dendritic cells from tumor-draining lymph nodes and tumor tissues
  amount of IFN-γ, dendritic cells co-cultured with OT-1 T cells: increased
OT-1 T cells; dendritic cells from tumor-draining lymph nodes, doxorubicin study
  T cell priming (amount of IFN-γ), dendritic cells co-cultured with OT-1 T cells: increased
OT-1 T cells; [3]
  proportion of IFN-γ-positive T cells, dendritic cells co-cultured: increased
  proportion of IFN-γ-positive T cells, macrophages co-cultured: did not affect
OT-1 T cells; mouse, in vivo
  amount of IFN-γ, macrophages co-cultured with OT-1 T cells: no change
